Data from PMC11758220, “Identification of a Privileged Scaffold for Inhibition of Sterol Transport Proteins through the Synthesis and Ring Distortion of Diverse, Pseudo-Natural Products” (ACS Central Science, 2025).

Key:
Aster-A = biological target: T1, Aster-A (Homo sapiens, UniProt Q96CP6); assay: Microplate-based cholesterol transfer assay between liposomes (FRET); assay type: biochemical; settings: Aster-A 125 nM, compound 10 μM, FRET with Rh-DHPE
T1 construct: Aster-A(359-547); GST (PreScission-cleavable) (N, cleaved yes); made in house; host or cells: E. coli OverExpress C41
T1 sequence (Q96CP6 359-547): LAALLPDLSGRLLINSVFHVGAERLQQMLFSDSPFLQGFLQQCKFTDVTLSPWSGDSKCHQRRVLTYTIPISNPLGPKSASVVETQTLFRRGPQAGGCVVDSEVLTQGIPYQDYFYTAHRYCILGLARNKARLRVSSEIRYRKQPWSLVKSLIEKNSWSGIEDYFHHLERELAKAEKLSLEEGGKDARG

STARD5 = biological target: T2, STARD5 (Homo sapiens, UniProt Q9NSY2); design: method as in Depta et al.[43]; settings: data reproduced; ref Depta et al.[43]; read-out: STARD5 Kd,app (DSF); cited from earlier work
T2 construct: STARD5(6-213); host or cells: E. coli BL21(DE3)
T2 sequence (Q9NSY2 6-213): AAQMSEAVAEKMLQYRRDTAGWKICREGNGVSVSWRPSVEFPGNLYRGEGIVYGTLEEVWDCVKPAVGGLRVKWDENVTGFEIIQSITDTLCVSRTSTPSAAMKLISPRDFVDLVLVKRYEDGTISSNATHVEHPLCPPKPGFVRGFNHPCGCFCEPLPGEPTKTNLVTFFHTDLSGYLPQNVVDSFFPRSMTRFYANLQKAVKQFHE

STARD4 = biological target: T3, STARD4 (Homo sapiens, UniProt Q96DR4, C75S); design: method as in Depta et al.[43]; settings: data reproduced; ref Depta et al.[43]; read-out: STARD4 Kd,app (DSF); cited from earlier work
T3 construct: STARD4(2-205; C75S); made in house; host or cells: E. coli BL21(DE3)
T3 sequence (Q96DR4 2-205 C75S): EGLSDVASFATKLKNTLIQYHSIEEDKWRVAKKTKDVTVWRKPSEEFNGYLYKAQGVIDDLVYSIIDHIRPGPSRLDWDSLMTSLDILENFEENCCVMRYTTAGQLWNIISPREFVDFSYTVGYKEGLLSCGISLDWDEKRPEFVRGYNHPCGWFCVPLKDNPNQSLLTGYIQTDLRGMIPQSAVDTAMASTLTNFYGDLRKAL

With `CC12CCC3CC1CCC21C(=Nc2ccc(N4CCOCC4)cc21)O3` (single isomer, unassigned; (-)) [(−)-19a] the “Inhibition of Aster-A mediated transport of 23-BODIPY-cholesterol between synthetic liposomes” value (Aster-A) was “inhibited”.
For `CCN(CC)CCO[C@H]1CC[C@@]2(C)C(=CC[C@@H]3[C@@H]2CC[C@]2(C)C(=O)CC[C@@H]32)C1` [Compound U18666A, reference compound], the Kd (STARD5) is listed as greater than 30 µM and the Kd (STARD4) is listed as greater than 30 µM.
